According to patent US12146196B2, “C-RAF mutants that confer resistance to RAF inhibitors” (DANA-FARBER CANCER INSTITUTE, INC., priority 2012, dated 2024):
Blank lines part the entries; values can stand above or below the compound they belong to.

Legend:
C-RAF resistance mutants [1] = assay: C-RAF kinase assay (A375); type: biochemical, human; conditions: A375 expressing S257P, P261T and G361A; exposure to 2 μM vemurafenib
Protocol: (§1) A375 cells infected with WT and mutant C-RAF alleles were cultured in the absence and presence of PLX4032 (Allele Biotech) for 16 h. Lysates were prepared with 150 mM NaCl, 50 mM Tris pH 7.5, 1 mM EDTA, PMSF, Sodium Fluoride, Sodium Orthovanadate and protease inhibitor cocktail in the presence of 1% NP-40. Immunoprecipitation with C-RAF antibody was performed overnight and bound beads were washed three times with lysis buffer, followed by kinase buffer (1×). […] The phosphorylated substrate MEK was detected by immunoblotting.

C-RAF resistance mutants [2] = biological target: T1, C-RAF resistance mutants (Homo sapiens, UniProt P04049, G361A); assay: C-RAF kinase assay (A375); type: biochemical; conditions: A375 expressing G361A; Vemurafenib 16 h
T1 construct: expressed in transfected cells
Protocol: as §1

C-RAF resistance mutants [3] = assay: C-RAF kinase assay (293T); type: biochemical, human; conditions: 293T cells treated with 2 μM vemurafenib prior to assay; all resistance alleles examined
Protocol: The 293T cells (70% confluent) were transfected with 6 μg pc-DNA with His or V5 tag towards the C-terminal containing C-RAF-WT and C-RAF variant alleles. Cells were treated with vemurafenib (Allele Biotech) for 1 h and 48 h post-transfection, lysates were extracted by general protocol. Immunoprecipitation using cobalt beads was performed […] for 1 hr at 4° C. […] The phosphorylated MEK product was detected by immunostaining using a p-MEK antibody (Cell Signaling Technology), and relative p-MEK signals were quantified using densitometry, normalized to the amount of input C-RAF, and compared to C-RAF-WT as a reference.

[4] = system: A375 cells expressing C-RAF resistance allele P261T; assay: Pharmacologic growth inhibition assay, P261T cells; type: cell-based, human; conditions: for increase of GI50 values compared to the WT: A375 expressing C-RAF P261T vs WT-C-RAF
Protocol: (§2) GI50 values were calculated by determining the slope of the line connecting the data points that flanked the 50% point.

[5] = system: A375 cells expressing WT-C-RAF; assay: Pharmacologic growth inhibition assay, WT-C-RAF cells; conditions: Homo sapiens, A-375, 96 h
C-RAF (S259, S338, S621) = assay: Immunoblot of C-RAF phosphorylation sites S259, S338, S621; type: cell-based, human; conditions: for S259 phosphorylation: A375 expressing resistance mutants
Protocol: (§3) Samples were extracted after washing twice with PBS and lysed with 150 mM NaCl, 50 mM Tris pH 7.5, 1 mM EDTA, PMSF, Sodium Fluoride, Sodium Orthovanadate and protease inhibitor cocktail in the presence of 1% NP-40. The protein content was estimated with protein assay reagent (Bio-Rad) according to the manufacturer's instructions. Equal amounts of whole cell lysates were loaded onto and separated by 8-16% SDS-PAGE ready-made gels. Proteins were transferred to polyvinylidene difluoride membranes in a Trans-Blot apparatus. Membranes were blocked with 5% skim milk in TBS containing 0.1% Tween 20 for 1 h at room temperature or overnight at 4° C. Membranes were then incubated with monoclonal or polyclonal antibody raised against the protein of interest for 1 h at room temperature or overnight at 4° C. followed by three washes with TBS containing 0.1% Tween 20. The immunoreactivity of the primary antibodies C-RAF, S259C-RAF, S338C-RAF, S621C-RAF, PERK, ERK, pMEK, MEK, 14-3-3ζ Flag (Cell Signaling), B-RAF (Santa Cruz Biotechnology) and actin (Sigma) was visualized with a secondary anti-rabbit (BD Transduction Laboratories) or anti-mouse (Santa Cruz Biotechnology) antibodies conjugated with horseradish peroxidase and subsequent development with ECL Plus (Amersham Biosciences) and autoradiography on X-OMAR TAR films. The bands were scanned and quantified by the Gel Doc system using the Quantity One software.

14-3-3/C-RAF interaction [6] = assay: Immunoprecipitation with C-RAF, bound 14-3-3ζ; type: cell-based, human
Protocol: (§4) (A) 293/T cells transiently expressing the indicated C-RAF resistance mutants in the absence (−) or presence (+) of 2 μM vemurafenib for 1 h were immunoprecipitated with C-RAF and levels of bound protein (B-RAF and 14-3-3 ζ) (upper panels) was assessed by immunoblotting. Input lysate (lower panels) show 14-3-3 ζ, B-RAF, C-RAF, pMek1/2, pErk1/2, Mek, S338 C-RAF and actin. Results are representative of more than two independent experiments. (B) A375 cells stably expressing the indicated C-RAF resistance mutants in the presence and absence of 2 μM vemurafenib for 16 h were immunoprecipitated with C-RAF and levels of bound protein (B-RAF and 14-3-3 ζ) (upper panels) was assessed by immunoblotting. Input lysate was blotted for the same as in FIG. 7A. Results are representative of more than two independent experiments.
(§5) For immunoprecipitation with C-RAF antibody (BD Biosciences) protein G-Sepharose slurry (Thermo Scientific) was washed with 1×PBS and incubated with C-RAF antibody (BD Biosciences) or normal mouse IgG (control) for 1 h at 4° C. After three washes with lysis buffer, the beads were incubated with whole cell lysates (0.5 mg of total protein) for 2 h and then washed three times with lysis buffer. The proteins were then eluted by boiling in 1×SDS-sample buffer.

14-3-3/C-RAF interaction [7] = biological target: T2, 14-3-3/C-RAF interaction (Homo sapiens, UniProt P04049); assay: Immunoprecipitation with C-RAF, bound 14-3-3ζ; type: cell-based; conditions: A375 cells (BRAF V600E)
T2 construct: expressed in transfected cells; 14-3-3 ζ endogenous
Protocol: as §4, §5

[8] = system: A375 cells expressing C-RAF resistance allele G361A; assay: Pharmacologic growth inhibition assay, G361A cells; type: cell-based, human; conditions: A375 expressing C-RAF G361A vs WT-C-RAF
Protocol: as §2

p-MEK, p-ERK = assay: Immunoblot of MEK/ERK signaling in 293T cells expressing C-RAF resistance mutants; type: cell-based, human; conditions: 2 μM
Protocol: as §3, with “The immunoreactivity of the primary antibodies C-RAF, S259C-RAF, S338C-RAF, S621C-RAF, PERK, ERK, pMEK, MEK, 14-3-3ζ Flag (Cell Signaling), B-RAF (Santa Cruz Biotechnology) and actin (Sigma) was visualized with a secondary anti-rabbit (BD Transduction Laboratories) or anti-mouse (Santa Cruz Biotechnology) antibodies conjugated with horseradish peroxidase and subsequent development with ECL Plus (Amersham Biosciences) and autoradiography on X-OMAR TAR films.” left out

[9] = system: B-RAF/C-RAF heterodimerization; assay: Immunoprecipitation with C-RAF, bound B-RAF; type: cell-based, human
[10] = biological target: B-RAF/C-RAF heterodimerization (Homo sapiens, UniProt P04049+P15056, V600E); assay: Immunoprecipitation with C-RAF, bound B-RAF; type: cell-based; conditions: A375 melanoma cells, wild-type C-RAF; 2 μM
C-RAF homodimer = assay: C-RAF homodimerization, Ni2+ bead pull-down of His-tagged C-RAF, anti-Flag immunoblot; type: cell-based, human; conditions: 293T cells expressing C-RAF resistance mutants; 2 μM, 1 h
Protocol: (A) 293T cells co-expressing His/V5-tagged and Flag-tagged C-RAF resistance mutants for 48 h were immunoprecipitated with Nickel (see Methods) to pull down His-tagged C-RAF, and Flag tagged C-RAF was assessed by immunoblotting. Input lysate was also assessed using antibodies that detected Flag-C-RAF, V5-C-RAF, total C-RAF, p-MEK, p-ERK and total ERK. (B) 293T cells co-expressing His/V5-tagged and Flag-tagged C-RAF resistance mutants were treated with either vehicle (DMSO) or 2 μM of vemurafenib for 1 h, and His/V5-tagged C-RAFwas immunoprecipitated as in (A) above. Input lysates were immunoblotted using antibodies recognizing C-RAF (S338), p-MEK, p-ERK, and actin (loading control). (C) In vitro C-Raf kinase activity was measured in cell extracts derived from 293T cells transiently expressing Flag-tagged empty vector (“C”), wild type C-RAF (“WT”), and C-RAF harboring the resistance mutants S257P, P261T, G361A and E478K. Assays were performed in the presence or absence of 2 μM vemurafenib (see Methods). […] (D) In vitro C-Raf kinase activity was measured in cell extracts derived from A375 cells (B-RAF^V600E) (“C”) and A375 stably expressing wild type C-RAF (“WT”), and C-RAF harboring the resistance mutants S257P, P261T, and G361A in the presence and absence of 2 μM vemurafenib. […]

[11] = system: A375 cells expressing C-RAF resistance allele S257P; assay: Pharmacologic growth inhibition assay, S257P cells; type: cell-based, human; conditions: for increase of GI50 values compared to the WT: A375 expressing C-RAF S257P vs WT-C-RAF
Protocol: as §2

pMek1/2, pErk1/2 = assay: Immunoblot of pMek/pErk in A375 cells expressing C-RAF alleles; type: cell-based, human
Protocol: as §3

[12] = A375 expressing S257P, P261T and G361A, PLX4720 2 μM 16 h

C-RAF kinase activity (C-RAF resistance mutants [1]): further augmented | C-RAF kinase activity in presence of the drug (C-RAF resistance mutants [2]): even higher kinase activity | C-RAF kinase activity (p-MEK) (C-RAF resistance mutants [3]): marked up-regulation | GI50 [5]: 0.4 µM | 14-3-3ζ binding to wild-type C-RAF (14-3-3/C-RAF interaction [7]): modestly decreased | increase of GI50 values / resistance compared to the WT [8]: 50 fold | B-RAF/C-RAF heterodimerization [10]: abrogated
SMILES: CCCS(=O)(=O)Nc1ccc(F)c(C(=O)c2c[nH]c3ncc(-c4ccc(Cl)cc4)cc23)c1F [Vemurafenib]
resistance in growth inhibition ([4]; A375 expressing C-RAF P261T): increased resistance | C-RAF activation (S338 phosphorylation) (C-RAF (S259, S338, S621); 293T cells expressing C-RAF resistance mutants, 2 μM, 1 h): robustly induced | 14-3-3/C-RAF interactions (14-3-3/C-RAF interaction [6]; 293/T cells): enhanced | 14-3-3ζ binding to C-RAF S257P, P261T and G361A mutants (14-3-3/C-RAF interaction [6]; A375 cells (BRAF V600E)): no effect | MEK/ERK activation (p-MEK, p-ERK; 293/T cells, C-RAF G361A co-expressed with dimerization-deficient R401H double mutant, 1 hr): further induced | downstream MEK/ERK signaling (p-MEK, p-ERK; 293T cells expressing C-RAF resistance mutants, 1 h): robustly induced | B-RAF/C-RAF heterodimerization ([9]; 293/T cells ectopically expressing wild-type C-RAF, 2 μM): induced | B-RAF heterodimerization ([9]; A375 cells expressing the most robust C-RAF resistance mutants, in the presence of drug): sustained | C-RAF dimerization (C-RAF homodimer): sustained but not further enhanced | resistance in growth inhibition ([11]; A375 expressing C-RAF S257P): increased resistance

SMILES: Cn1cnc2c(F)c(Nc3ccc(Br)cc3Cl)c(C(=O)NOCCO)cc21 [AZD6244]
pErk (pMek1/2, pErk1/2; A375 expressing resistance mutants, AZD6244 1 μM 16 h): diminishing levels | S259 phosphorylation (C-RAF (S259, S338, S621); AZD6244 1 μM 16 h): attenuated

increase of GI50 values compared to the WT [4]: ~30,000 fold | increase of GI50 values / resistance compared to the WT [8]: 20 fold | increase of GI50 values compared to the WT [11]: ~10,000 fold
SMILES: COC(=O)N[C@@H](C)CNc1nccc(-c2cn(C(C)C)nc2-c2cc(Cl)cc(NS(C)(=O)=O)c2F)n1 [(S)-methyl 1-(4-(3-(5-chloro-2-fluoro-3-(methylsulfonamido)phenyl)-1-isopropyl-1H-pyrazol-4-yl)pyrimidin-2-ylamino)propan-2-ylcarbamate]
biochemical resistance (pMek/pErk) (pMek1/2, pErk1/2; 1 μM, A375 expressing C-RAF resistance mutants): conferred resistance

increase of GI50 values compared to the WT [4]: ~100 fold | GI50 [5]: 0.4 µM | increase of GI50 values / resistance compared to the WT [8]: 30 fold | increase of GI50 values compared to the WT [11]: ~100 fold
SMILES: CCCS(=O)(=O)Nc1ccc(F)c(C(=O)c2c[nH]c3ncc(Cl)cc23)c1F [PLX4720]
Mek phosphorylation (pMek) and Erk phosphorylation (pErk) (pMek1/2, pErk1/2; 2 μM, A375 cells and WT-C-RAF expressing cells): attenuated | pMek and pErk (pMek1/2, pErk1/2; 2 μM, A375 expressing C-RAF resistance alleles): sustained pMek and pErk | p-MEK (pMek1/2, pErk1/2; A375 expressing CRAF G361A, high PLX4720 concentrations): substantial “paradoxical” activation | phosphorylation of S338 (C-RAF (S259, S338, S621); [12]): induced | phosphorylation of S621 (C-RAF (S259, S338, S621); [12]): modest increase | S259 phosphorylation (C-RAF (S259, S338, S621); PLX4720): induced
